From PubChem BioAssay AID485340 (Southern Research Specialized Biocontainment Screening …, 2010)
Activity calls are given as the source filed them. No rule for the calls is given here.

System: M. tuberculosis growth, meropenem IC50 shift with compound
Experiment: confirmation, meropenem IC50 shift (AID 485340);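 also: growth read after one week of culture plus overnight Alamar Blue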
[1] = compound alone IC50 vs Mtb, compound dose (near its own IC50) 4.69 µM
[2] = compound dose (near its own IC50) 4.69 µM
[3] = compound alone IC50 vs Mtb, compound dose (near its own IC50) 9.38 µM
[4] = compound dose (near its own IC50) 9.38 µM
[5] = compound alone IC50 vs Mtb, compound dose (near its own IC50) 1.18 µM
[6] = compound dose (near its own IC50) 1.18 µM
[7] = compound alone IC50 vs Mtb, compound dose (near its own IC50) 0.15 µM
[8] = compound dose (near its own IC50) 0.15 µM
[9] = compound alone IC50 vs Mtb, compound dose (near its own IC50) 2.35 µM
[10] = compound dose (near its own IC50) 2.35 µM
[11] = compound alone IC50 vs Mtb, compound dose (near its own IC50) 0.59 µM
[12] = compound dose (near its own IC50) 0.59 µM

`CC1=Nc2ccccc2/C1=C\c1nc(-c2ccc(F)cc2)oc1O` was tested, and the IC50 [1] was 3.73 µM and the IC50 [2] was 4.02 µM (inactive).
`COc1cc(/C(C)=N\NC(N)=S)cc(OC)c1OC` was tested, and the IC50 [3] was 10.2 µM and the IC50 [4] was 2.82 µM (inactive).
For `Cc1cc(C)cc(NC(=O)c2cc(Cl)sc2Cl)c1`, the IC50 [1] was 4.84 µM and the IC50 [2] was 1.88 µM (inactive).
With `COc1cccc(C(=O)C2CCCN(Cc3ccccn3)C2)c1` (stereo not drawn) the IC50 [5] was 1.46 µM and the IC50 [6] was 7.15 µM (inactive).
For `CCOC(=O)COc1nc(-c2ccc(Cl)cc2)cc(-c2ccco2)c1C#N`, the IC50 [1] was 3.82 µM and the IC50 [2] was 7.14 µM (inactive).
`O=C(Nc1ccccc1)Nc1csc2ccccc12` was tested, and the IC50 [7] was 0.2 µM and the IC50 [8] was 4.85 µM (inactive).
`CCOc1cc(/C=N\Nc2ccc([N+](=O)[O-])cc2)ccc1OCC(=O)Nc1ccc(C)c(C)c1` was tested, and the IC50 [1] was 5.99 µM and the IC50 [2] was 4.01 µM (inactive).
In the case of `COc1cccc(/C=N/NC(=O)NC23CC4CC(CC(C4)C2)C3)c1O`, the IC50 [9] is reported as 2.93 µM and the IC50 [10] is reported as 5.23 µM (inactive).
`Cc1ccc2[nH]c(O)c(N=Nc3nc4ccccc4s3)c2c1` was tested, and the IC50 [1] was 6.76 µM and the IC50 [2] was 5.1 µM (inactive).
`COc1cc(C(=O)Oc2ccccc2/C=N/NC(=O)c2ccc(C)c(Cl)c2)cc(OC)c1OC` was tested, and the IC50 [9] was 1.96 µM and the IC50 [10] was 4.26 µM (inactive).
`O=c1oc(-c2ccccc2F)nc2scc(-c3ccccc3)c12` was tested, and the IC50 [9] was 2.19 µM and the IC50 [10] was 5.8 µM (inactive).
`CSc1nc2cc3c(cc2n1C(=O)c1ccc(C)cc1)OCCO3` was tested, and the IC50 [1] was 5.15 µM and the IC50 [2] was 4.06 µM (inactive).
In the case of `CO/N=C(\C(=O)N[C@@H]1C(=O)N2C(C(=O)O)=C(COC(C)=O)CS[C@H]12)c1csc(N)n1` (stereo in doubt), the IC50 [3] is reported as 10.3 µM and the IC50 [4] is reported as 1.01 µM (inactive).
In the case of `Fc1ccc(-c2csc(NC(=S)Nc3ccccc3)n2)cc1`, the IC50 [3] is reported as 7.55 µM and the IC50 [4] is reported as 2.74 µM (inactive).
With `C[C@H](NC(=O)c1[nH]cnc1C(=O)Nc1ccc(Cl)cc1)C(=O)OC(C)(C)C` the IC50 [3] was 10.4 µM and the IC50 [4] was 4.93 µM (inactive).
In the case of `CCCN1C(=O)S/C(=C/c2ccc(N3CCOCC3)o2)C1=O`, the IC50 [7] is reported as 0.2 µM and the IC50 [8] is reported as 5.45 µM (inactive).
In the case of `O=C(COc1ccc2ccccc2c1)Nc1nc2ccccc2[nH]1`, the IC50 [1] is reported as 5.83 µM and the IC50 [2] is reported as 2.07 µM (inactive).
With `Cc1ccc(Cn2c(NC(=O)c3ccco3)nc3ccccc32)cc1` the IC50 [9] was 2.62 µM and the IC50 [10] was 4.24 µM (inactive).
`O=C(Cc1ccccc1Cl)Nc1nc2ccccc2[nH]1` gave an IC50 [3] of 9.31 µM and an IC50 [4] of under 0.52 µM.
In the case of `Cc1ccc(-c2[nH][nH]c(=O)c(=O)c2N=Nc2ccccc2)cc1`, the IC50 [1] is reported as 4.12 µM and the IC50 [2] is reported as 4.07 µM (inactive).
In the case of `C/C(=N\NC(=S)Nc1ccccc1C)c1ccc(O)cc1`, the IC50 [11] is reported as 0.552 µM and the IC50 [12] is reported as 7.22 µM (inactive).
For `CCOC(=O)c1cnc2cc(-c3ccc(C(C)(C)C)cc3)nn2c1N`, the IC50 [5] was 0.899 µM and the IC50 [6] was 7.5 µM (inactive).
`C/C(=N\NC(=O)c1cc2c(s1)CCC(C)C2)c1ccc[nH]1` (stereo not drawn) was tested, and the IC50 [1] was 6.51 µM and the IC50 [2] was 1.98 µM (inactive).
For `N#Cc1c(-c2cccs2)cc(-c2ccccn2)nc1N`, the IC50 [3] was 6.92 µM and the IC50 [4] was 0.73 µM.
For `O=C(NN=C(Cc1ccccc1)Cc1ccccc1)c1ccccc1F`, the IC50 [5] was 1.64 µM and the IC50 [6] was 4.28 µM (inactive).
For `c1ccc(OCc2nnc(-c3ccccc3)o2)cc1`, the IC50 [5] was 1.4 µM and the IC50 [6] was 7.26 µM (inactive).
For `O=C(CCN1c2ccccc2Sc2ccccc21)Oc1ccccc1`, the IC50 [3] was 8.48 µM and the IC50 [4] was 2.05 µM (inactive).
For `c1ccc(Nc2ncnc3c2oc2ccccc23)cc1`, the IC50 [9] was 2 µM and the IC50 [10] was 6.76 µM (inactive).
With `CCOC(=O)c1c(C)n(-c2ccccc2)c2ccc(OCCN(C)C)cc12` the IC50 [1] was 5.45 µM and the IC50 [2] was 4.08 µM (inactive).
For `NC(=S)N/N=C/c1ccc(/C=N/NC(N)=S)cc1`, the IC50 [9] was 2.5 µM and the IC50 [10] was 4.04 µM (inactive).
In the case of `c1ccc(-n2c3ccccc3c3ccccc32)cc1`, the IC50 [9] is reported as 3.27 µM and the IC50 [10] is reported as 7.17 µM (inactive).
`Cc1cc(NC(=O)/C=C/c2ccccc2Cl)n(-c2nc3ccccc3[nH]2)n1` was tested, and the IC50 [9] was 1.94 µM and the IC50 [10] was 5.88 µM (inactive).
For `O=C(OC(C(=O)Nc1ccc(Cl)cc1C(F)(F)F)c1ccccc1)C1=COCCO1` (stereo not drawn), the IC50 [5] was 1.23 µM and the IC50 [6] was 7.47 µM (inactive).
For `COc1cccc(NC(=S)Nc2cc(C)cc(C)n2)c1`, the IC50 [1] was 6.41 µM and the IC50 [2] was 4.07 µM (inactive).
`CCC(C(=O)NC1C(=O)N2C(C(=O)O)=C(CSc3nnc(C)s3)CSC12)c1ccccc1` (stereo not drawn) was tested, and the IC50 [11] was 0.587 µM and the IC50 [12] was 1.99 µM (inactive).
With `Cc1cc(/C=N/NC(=O)CC#N)c(C)n1-c1ccc([N+](=O)[O-])cc1` the IC50 [3] was 10.2 µM and the IC50 [4] was 4.08 µM (inactive).
`Cc1ccc(OCC(=O)Nc2ccc3c4c(cccc24)CC3)c(C)c1` was tested, and the IC50 [9] was 1.71 µM and the IC50 [10] was 7.05 µM (inactive).
With `Cc1ccccc1OCC(=O)Nc1ccccc1-c1ccccc1` the IC50 [1] was 6.04 µM and the IC50 [2] was 4.07 µM (inactive).
`O=C(CCCCCN1C(=O)c2cccc([N+](=O)[O-])c2C1=O)Nc1ccccc1F` was tested, and the IC50 [3] was 10.2 µM and the IC50 [4] was 1.08 µM (inactive).
